Assay results taken from ChEMBL document CHEMBL1139180, “Design, synthesis, and bioactivity of novel inhibitors of E. coli aspartate transcarbamoylase” (Bioorg Med Chem Lett, 2007).

Experiment: Inhibition of Escherichia coli ATCase

Compound | IC50
O=C(CP(=O)(O)O)NC(CO)CCO (stereo not given) | 2900 µM
O=C(CP(=O)(O)O)NC(CO)C(=O)O (stereo not given) | 30 µM
CC(O)C(NC(=O)CP(=O)(O)O)C(=O)O (stereo not given) | 42 µM
O=C(CP(=O)(O)O)NC(C(=O)O)C(=O)O | 43.5 µM
O=C(CP(=O)(O)O)NC(CO)CO | 12500 µM

Next, values leading:

IC50 | Compound
3.9 µM | O=C(CP(=O)(O)O)NC(CCO)C(=O)O (stereo not given)
0.055 µM | O=C(O)C[C@H](NC(=O)CP(=O)(O)O)C(=O)O [PALA]
63 µM | O=C(CP(=O)(O)O)NC(Cc1ccc(O)cc1)C(=O)O (stereo not given)
0.087 µM | NC(=O)C(CC(=O)O)NC(=O)CP(=O)(O)O (stereo not given)
0.225 µM | NC(=O)CC(NC(=O)CP(=O)(O)O)C(=O)O (stereo not given)
